Laboratory results published in patent US10842806B2, “Methods for treating ocular inflammatory disorders” (Massachusetts Eye and Ear Infirmary, priority 2011, dated 2020).

Key:
Format in all cases: in vivo, Lewis rats
retinal vessels = experiment: Protein leakage from retinal vessels (biotinylated BSA assay); conditions: AICAR-pretreated EIU rats, 24 h after LPS; n=8; EIU rats 30.5±21.2
Method: Male Lewis rats ranging from 6-8 weeks old (Charles River, Wilmington, Mass.) were used for these studies. To study the effects of AICAR pretreatment, AICAR and PBS (for placebo treatment) were delivered via intraperitoneal injection of AICAR (50 mg/kg or 100 mg/kg body weight; Sigma) diluted in 150 μl PBS or equal volume of PBS at 6 hours before and at the same time as LPS injection. Four experimental groups of rats were compared: (1) Normal: no treatment (2) AICAR: normal rats treated with AICAR 6 hours before examination; (3) LPS: EIU rats treated with PBS; (4) LPS+AICAR: EIU rats treated with AICAR. Two additional groups of rats were used to study the effects of AICAR (50 mg/kg) given either at the same time as LPS injection or at 6 hours after LPS injection. Protein leakage from retinal vessels was assessed with a biotinylated bovine serum albumin (bBSA) assay as previously described (Trichonas et al. (2010) INVEST. OPHTHALMOL. VIS. SCI. 51:1677-1682). At 23 hours after LPS injection, rats were anesthetized and 0.14 ml of 43.7 mg/ml bBSA (Santa-Cruz Biotechnology, Santa Cruz, Calif.) was injected through the femoral vein. After one hour, the chest cavities of rats were opened, and the rats were perfused with lactated Ringer's solution via the left ventricle for 6 minutes. […] Supernatant was collected, and bBSA concentration was measured by enzyme-linked immunosorbent assay (ELISA). […]

ICAM-1 = ICAM-1 ELISA in aqueous humor, retina and serum of EIU rats; conditions: LPS + AICAR
Method: Male Lewis rats ranging from 6-8 weeks old (Charles River, Wilmington, Mass.) were used for these studies. To study the effects of AICAR pretreatment, AICAR and PBS (for placebo treatment) were delivered via intraperitoneal injection of AICAR (50 mg/kg or 100 mg/kg body weight; Sigma) diluted in 150 μl PBS or equal volume of PBS at 6 hours before and at the same time as LPS injection. Four experimental groups of rats were compared: (1) Normal: no treatment (2) AICAR: normal rats treated with AICAR 6 hours before examination; (3) LPS: EIU rats treated with PBS; (4) LPS+AICAR: EIU rats treated with AICAR. Two additional groups of rats were used to study the effects of AICAR (50 mg/kg) given either at the same time as LPS injection or at 6 hours after LPS injection. Under deep anesthesia, experimental rats were sacrificed and the retinas were carefully removed 24 hours after LPS injection, placed into 200 μl of lysis buffer and then sonicated. The lysate was centrifuged at 13,000 rpm for 10 minutes at 4° C. and supernatant was isolated. Three hours after LPS injection, blood samples were collected from the heart and subsequently centrifuged at 3000 rpm for 30 minutes at 4° C., and serum samples were separated. Cytokine and chemokine levels in the serum, aqueous humor, and retina were assessed using the rat CCL2/MCP-1 kit (Invitrogen, Camarillo, Calif.), the rat TNF-α kit (R&D system, Minneapolis, Minn.) and the rat ICAM-1 kit (R&D systems) by ELISA.

CD14 = CD14 mRNA (real time PCR) and protein (Western blot) in PBMC of EIU rats; conditions: three hours after LPS
Method: Male Lewis rats ranging from 6-8 weeks old (Charles River, Wilmington, Mass.) were used for these studies. To study the effects of AICAR pretreatment, AICAR and PBS (for placebo treatment) were delivered via intraperitoneal injection of AICAR (50 mg/kg or 100 mg/kg body weight; Sigma) diluted in 150 μl PBS or equal volume of PBS at 6 hours before and at the same time as LPS injection. Four experimental groups of rats were compared: (1) Normal: no treatment (2) AICAR: normal rats treated with AICAR 6 hours before examination; (3) LPS: EIU rats treated with PBS; (4) LPS+AICAR: EIU rats treated with AICAR. Two additional groups of rats were used to study the effects of AICAR (50 mg/kg) given either at the same time as LPS injection or at 6 hours after LPS injection. For preparation of peripheral blood mononuclear cell (PBMC) samples, blood samples were collected at three hours after LPS injection, and PBMC samples were isolated by density gradient centrifugation with Histopaque 1083 (Sigma). The red blood cells were lysed with Red Blood Cell Lysing Buffer (Sigma). For Western blot analysis, pooled PBMCs from three rats were homogenized with lysis buffer (Roche Diagnostics Corp) and centrifuged at 13,000 rpm for 10 minutes at 4° C. […] Quantitative expression data were acquired and analyzed with a Step One Plus real-time PCR system (Applied Biosystems).

## NC(=O)c1ncn([C@@H]2O[C@H](CO)[C@@H](O)[C@H]2O)c1N [AICAR, 5-aminoimidazole-4-carboxamide-1-β-d-ribofuranoside]
Retinal vessels
  Protein leakage from retinal vessels (bBSA): 11.2±7.2 ng/mg total retinal protein
ICAM-1; 3 hours after LPS, n=11, LPS 28.7 ± 8.1
  ICAM-1 in serum: 21.6 ± 5.0 ng/mL
ICAM-1; 24 h after LPS, n=12, LPS 8.7 ± 4.4
  ICAM-1 in aqueous humor: 4.4 ± 3.3 ng/mL
ICAM-1; 24 h after LPS, n=14, LPS 316.4 ± 132.3
  ICAM-1 in retina: 202.9 ± 113.4 pg/total retinal protein
CD14; AICAR pretreatment, n=9, EIU 3.8±0.7, normal 0.7±0.3
  CD14 mRNA expression in PBMCs: 1.7±1.0
CD14; AICAR-pretreated rats vs EIU rats
  CD14 protein expression in PBMCs (Western blot): decreased
